Experimental data reported in patent publication US20040143461A1, “Generating, viewing, interpreting, and utilizing a quantitative database of metabolites” (Lipomics Technologies, Inc., priority 2001, published 2004).
Where two headings read alike, the source gives them in different places.

What was measured:
heart lipid metabolome = system: heart lipid metabolome
Protocol: (§1) Mouse tissue and plasma samples were a generous donation to Lipomics Technologies from Dr. Edward Leiter of the Jackson Laboratory (Bar Harbor, Me.). Samples included the plasma, heart, liver and inguinal adipose of mice treated with pharmaceuticals or their corresponding controls.
(§2) In both studies, five treated and five control mice were used. Following the treatments and the killing of the mice, tissues and plasma were taken, chilled to −80° C. and shipped to the analysis laboratory at Lipomics Technologies in a frozen state.
(§3) For the analysis of liver and heart tissues, 25 mg of tissue were placed in a ground glass homogenizer and internal standards were added. The internal standards for use in the analyses of these tissues may take many forms, but in this instance consisted of: 4.75 μg of N-pentadecenoyl-D-erythro-sphingosylphorylcholine; 74.78 μg of 1,2 diheptadecanoylphosphatidylcholine; 33.57 μg of 1,2-diheptadecenoylphosphatidylserine (for phosphatidylserine); 24.13 μg of 1,2-diheptadecenoylphosphatidylethanolamine; 13.38 μg of 1,1′,2,2′-tetraheptadecaenoyl cardiolipin (for cardiolipin); 1.12 μg of pentadecaenoic acid; 27.82 μg of triheptadecaenoic acid; 1.56 μg of cholesteryl heptadecanoate; and 27.70 μg of stigmasterol.
(§4) The solution mixture consisting of sample, fluid extractant, and internal standards was homogenized by twelve strokes with a ground-glass homogenizer. Following homogenization, 1.8 ml of 0.01 M potassium chloride was added, and the solution was vigorously mixed. The organic fraction containing the lipids and the internal standards was separated from the polar fraction of the mixture by centrifugation. The lipid extract was removed from the mixture and concentrated under a stream of nitrogen in preparation for lipid class separation.
(§5) The separation of lipid classes was performed by preparative thin-layer chromatography (TLC), essentially as previously described (Watkins et al., Lipids 36:247-254, 2001). To remove any residual metal or other damaging contaminants on the TLC plates, each plate was washed prior to use. Washing the plates is a three-step process that involves impregnating each plate with ethylenediamine tetraacetic acid (EDTA) and rinsing the plates once with methanol and once with chloroform. Each plate is first impregnated with 1 mM EDTA, pH 5.5, by ascending development using the method of Ruiz (J. Lipid Res. 38, 1482-1489, 1997). After each plate was completely developed, it was dried in air overnight. Once dry, each plate was developed in methanol, dried, and developed in chloroform in the same direction as the development with EDTA. The washed plates were then dried in air. Just prior to use, each plate was activated by heating to 110° C. for 10 minutes.
(§6) To prepare the TLC chamber for chromatography, Whatman (Clifton, N.J.) filter paper was cut into 20×80-cm strips and wrapped around the inside wall of a 30×60×10-cm glass development chamber. One hundred milliliters of the appropriate mobile phase was added to the chamber, and the chambers were sealed and allowed to equilibrate. Chambers were considered equilibrated when the solvent front had completely ascended the filter paper. The mobile phase employed for the separation of phospholipid classes (lyso-phospholipids, sphingomyelin, phosphatidylcholine, phosphatidylserine, phosphatidylethanolamine and cardiolipin) was a modification of the solvent system described by Holub and Skeaf (“Nutritional regulation of cellular phosphatidylinositol,” in Meth. Enzym., ed. Conn (Academic Press, Inc., Orlando), pp. 234-243, 1987) consisting of chloroform/methanol/acetic acid/water (100:67:7:4, by vol).
(§7) For the separation of neutral lipid classes (free fatty acids, free sterols, triacylglycerides and cholesterol esters), a solvent system consisting of petroleum ether/diethyl ether/acetic acid (80:20:1, by vol) was used (Mangold, Thin Layer Chromatography— A Laboratory Handbook (Springer-Verlag, New York), 1969).

liver lipid metabolome = conditions: treated mice
Protocol: as §1, §2, §3, §4, §5, §6, §7

[1] = humans; cited from earlier work
[2] = system: inguinal adipose lipid metabolome
Protocol: as §1, §2
The lipids from plasma and tissues were extracted in the presence of authentic internal standards by the method of Folch et al. (J. Biol. Chem. 226, 497-509, 1957) by homogenization in a fluid extractant consisting of chloroform:methanol (2:1 vol:vol). Plasma (200 μl), or 10 mg inguinal adipose tissue was used for each analysis. For each sample, an appropriate mass of internal standard was added. The internal standard compounds chosen may take many forms, but in one specific example the internal standards added to each plasma sample were: 1.75 μg of heptadecanoic 1-heptadecanoyl-2-lyso-phosphatidycholine (for lysophospholipids), 2.25 micrograms of N-pentadecenoyl-D-erythro-sphingosylphorylcholine (for sphingomyelin), 39.93 micrograms of 1,2 diheptadecanoylphosphatidylcholine (for phosphatidylcholine), 0.93 micrograms of 1,2-diheptadecenoylphosphatidylethanolamine (for phosphatidylethanolamine), 2.09 micrograms of pentadecaenoic acid (for free fatty acids), 32.93 micrograms of triheptadecaenoic acid (for triacylglycerides), 27.27 micrograms of cholesteryl heptadecanoate (for cholesterol esters) and 38.03 micrograms of stigmasterol (for free sterols).
as §4, §5
To prepare the TLC chamber for chromatography, Whatman (Clifton, N.J.) filter paper was cut into 20×80-cm strips and wrapped around the inside wall of a 30×60×10-cm glass development chamber. One hundred milliliters of the appropriate mobile phase was added to the chamber, and the chambers were sealed and allowed to equilibrate. Chambers were considered equilibrated when the solvent front had completely ascended the filter paper.

[3] = Body weight, glycemia, insulin and hepatic steatosis in rosiglitazone-treated (NZO×NON)F1 male mice; assay type: in vivo, mouse
plasma lipids = assay: Lipomic assessment of CL316,243-treated NZO mice (trial 2), targeting graph versus rosiglitazone; assay type: in vivo, mouse
Source text: In a targeting display, quantitative metabolite data is compared from two samples that have been subjected to different treatments, for instance treatment with two different drugs or a drug and a test compound. The percentage or absolute changes (versus the standard sample) in the measured metabolites are plotted against each other on a Cartesian graph. This visual system facilitates the comparison of the global and individual metabolic effects of the two conditions being examined. If the two treatments (e.g., two drug treatments) affect the biological system in metabolically similar ways, the data points will fall along a line with a slope of 1, running through the origin (from the lower left to the upper right quadrant, in other words). Outlier data points, where one treatment or the other has a different effect on a metabolite, will lie in the upper left or lower right quadrants, and are therefore easily identified. […] The further off the “equivalent” slope a data point is, the greater the magnitude of differential effect that is being illustrated.
The metabolites found in the lower left and the upper right quadrants of the scatter plot (especially those where the X and Y values are similar) represent those likely affected by similar molecular mechanisms. […]

[4] = amount in parentheses after the % greater
[5] = treated vs control mice, FIG. 5

For `CN(CCOc1ccc(CC2SC(=O)NC2=O)cc1)c1ccccn1` (stereo not drawn) [rosiglitazone], the “14:0 fatty acid associated with heart sphingomyelin, more than the control sample” value (heart lipid metabolome; FIG. 5 heat map, test sample vs control sample) was 80%, the “Docosahexaenoic acid (22:6n3) in heart cardiolipin” value (heart lipid metabolome; treated mice, control 2,200 nmol/g) was 950 nmol/g and the “linoleic acid (18:2n6) in heart cardiolipin” value (heart lipid metabolome; treated mice, control 4,550 nmol/g) was 8,850 nmol/g. For the same molecule, the “mean cardiolipin content of hearts” value (heart lipid metabolome; treated mice, untreated 2,500 nmol/g) was 3,000 nmol/g, the “average concentration of total free fatty acids in the heart” value (heart lipid metabolome; treated mice, untreated 5,100 nmol/g) was 2,500 nmol/g and the “heart free fatty acids of the saturated n-3, n-6, and n-9 families, lower than in untreated mice” value (heart lipid metabolome; treated vs untreated mice, FIG. 7) was “approximately 50%”. The liver sphingomyelin concentration (liver lipid metabolome; untreated 1,890 nmol/g) was 1,180 nmol/g, the Total hepatic triacylglycerides (liver lipid metabolome; untreated 81,300 nmol/g) was 150,400 nmol/g and the weight gain [1] was “often accompanied by weight gain”. For the same molecule, the “docosahexaenoic acid in inguinal fat triacylglycerides, greater concentration than control” value [2, 4] was 7,000 nmol/g, the “eicosapentaenoic acid in inguinal fat triacylglycerides, greater concentration than control” value [2, 4] was 4,100 nmol/g and the “a-linolenic acid in inguinal fat triacylglycerides, more than control” value ([2]; amount in parentheses after the % more) was 24,300 nmol/g. The “concentration of total n-3 fatty acids in the inguinal fat triacylglycerides” value ([2]; treated mice) was 71,260 nmol/g, the “inguinal fat triacylglyceride content” value ([2]; treated mice) was 9,628 μmol/g and the “inguinal fat free fatty acids” value ([2]; treated mice, controls 9,900 nmol/g) was 13,370 nmol/g. The “concentration of n-7 fatty acids in inguinal fat triacylglycerides” value ([2]; treated mice, untreated 204 μmol/g) was 303 µmol/g, the “inguinal fat free fatty acids, more than controls” value ([2]; treated vs control mice) was 35% and the “inguinal fat triacylglyceride content, lower than controls” value ([2]; treated vs control mice) was 5.7%. The “a-linolenic acid in inguinal fat triacylglycerides, more than control” value [2, 5] was 84%, the “docosahexaenoic acid in inguinal fat triacylglycerides, greater concentration than control” value [2, 5] was 612% and the “eicosapentaenoic acid in inguinal fat triacylglycerides, greater concentration than control” value [2, 5] was 522%. The “total concentration of n-6 fatty acids in inguinal fat, higher than untreated” value ([2]; treated vs untreated mice) was “less than 3%”, the “total n-3 fatty acids in inguinal fat triacylglycerides, greater than in untreated mice” value ([2]; treated vs untreated mice) was 120% and the body weight ([3]; markedly-obese (NZO×NON)F1 male mice) was “increase in body weight”. For the same molecule, the hepatic steatosis ([3]; treated animals) was “severe hepatic steatosis”.
For `C[C@H](Cc1ccc2c(c1)OC(C(=O)[O-])(C(=O)[O-])O2)NC[C@H](O)c1cccc(Cl)c1.[Na+].[Na+]` [CL316,243], the “similarity of effect on plasma lipids to rosiglitazone” value (plasma lipids; targeting graph FIG. 6, NZO mice, 0.001% in chow, four weeks) was “largely validated” and the “increase in the de novo synthesis of fatty acids” value (plasma lipids; targeting graph FIG. 6, upper left quadrant metabolites (16:1n7, 18:1n7, 20:3n9)) was “not induced”.
